Series [1] deals with HT-29.
Method: (§4) Cancer cell lines were obtained from ATCC unless otherwise noted. HT-29 and HCT-116 cells were cultured in Dulbecco's Modified Eagle Medium (DMEM, Thermo Fisher Scientific) with 10% fetal bovine serum (FBS, Thermo Fisher Scientific) and 1% antibiotic-antimycotic (Thermo Fisher Scientific).
(§5) Briefly, CRC cells were seeded at a density of 5×10^3 cells/well in 96-well microtiter plates (100 μL/well), separated into two groups with or without GSH. After incubation for 24 hours, the culture medium was replaced by fresh medium (100 μL). […] After incubation, 10% cold trichloroacetic acid was gently added to each well and incubated at 4° C. for 1 h. The medium was removed, carefully washed with water, and dried at room temperature. […] The optical density (O.D.) was measured at 510 nm with Multi-Mode Microplate Reader (SpectraMax Paradigm, Beckman Coulter, U.S.). The fraction of cell survival was calculated as follows. Survival fraction=(OD treated−blank)/(OD control−blank). […] Each experiment was repeated three times.
A further series relates to HCT-116. The series is described as follows: Cytotoxicity by SRB assay in HCT-116 cells. The series is classed as cell-based, human. How it is done: (§1) The fraction of cell survival was calculated as follows. Survival fraction=(OD treated−blank)/(OD control−blank). […] Each experiment was repeated three times.
For orientation: In SRB staining, fixed cells bind dye roughly in proportion to their protein.

Series [2] has as its system HT-29. The series is described as follows: Cytotoxicity by SRB assay in HT-29 cells.
Method: as §4, §5
The subject of series [3] is orthotopic CRC mice model. The series is described as follows: Orthotopic AOM/DSS-induced CRC mice model, tumor area. The series is classed as in vivo, BALB/c mice. How it is done:
Azoxymethane (AOM)-induced murine CRC model was applied to model human CRC. BALB/c mice (6 weeks of age, male) were intraperitoneally (i.p.) injected once every two weeks with AOM (10 mg/kg body weight) or the PBS vehicle. Seven days after each AOM injection, 2% dextran sulfate sodium (DSS) was given in the drinking water for four days, followed by 3 days of regular water. This cycle was repeated three times. The mice were randomly divided into eight groups (n=5), on day 60 after the first AOM treatment. […] Tumor volumes and body weights were recorded at sacrifice. The tumors were counted under a dissecting microscope, and the area covered by tumors was measured by imaging software (AxioVision LE 4.8.2.0).

In series [4] the test system is CRC cell lines HCT-116 and HT-29. The series is described as follows: Cytotoxicity against CRC cell lines, summary over both lines (SRB assay). The settings on record: HCT-116 and HT-29, with or without GSH. The series is classed as cell-based, human. As for the experimental part: as §1
Another series concerns GLUT-1. The series is described as follows: 2-NBDG uptake assay in COS-7 cells that overexpress GLUT-1. The settings on record: 50 μM and 100 μM. The series is classed as cell-based. How it is done:
COS-7 cells were seeded in 96-well culture plates and grown in low-glucose Dulbecco's Modified Eagle's medium supplemented with 10% fetal bovine serum and 2 mM L-glutamine for 24 h. After washing with Krebs Ringer bicarbonate buffer (KRB) (10 mM HEPES, 129 mM NaCl, 4.7 mM KCl, 2 mM CaCl2) and 1.2 mM MgSO4, 1.2 mM KH2PO4, 5 mM NaHCO3, pH 7.4), cells were incubated with the compounds to be tested in KRB containing 2-NBDG (200 μM) for 90 min at 37° C. in a 5% CO2 atmosphere, and then washed twice with KRB and lysed with lysis buffer (1% Nonidet P-40, 1% sodium deoxycholate, 40 mM KCl, and 20 mM Tris, pH 7.4). Finally, the lysates were transferred to black 96-well plates and fluorescence intensity was detected with a Multi-Mode Microplate Reader (SpectraMax Paradigm, Beckman Coulter, USA) using an excitation wavelength of 475 nm and an emission wavelength of 550 nm.

For series [5], the system named is metastatic colorectal cancer. The settings on record: 5-FU-based chemotherapy; cited from earlier work.
Series [6] is described as follows: Plasma pharmacokinetics in mice (UPLC-MS/MS). The series is classed as in vivo, BALB/c mice. As to conditions: i.p. injection; 5-FU measured in plasma. As for the experimental part: (§2) In the following PK experiments, BALB/c mice (six weeks of age, male) were randomly divided into two groups (n=3). […] Blood samples were collected via femoral vein by syringes at 0, 1, 3, 5, 10, 15, 30, 45 min, 1, 2, 4, and 24 h after drug administration. 50 μL blood samples were collected into 100 μL extraction solvent (EtOAc/MeOH=1:1) and vortex for 30 sec. The supernatants were separated from the mixture by centrifugation at 10,000 rpm for 10 min and frozen at −30° C. pending UPLC-MS/MS analysis. For bio-distribution experiments, the entire dissected organs were placed into round-bottom after weighting, two-milliliter microcentrifuge tubes with 1 mL of extraction solvent (EtOAc/MeOH=1:1) and 7 mm stainless steel beads, then homogenized for 30 min. All of the containers were maintained at 4° C. throughout the process. The supernatants were separated from the mixture by centrifugation at 10,000 rpm for 10 min and frozen at −30° C. The 200 μL solvent from crude organ suspensions was removed by the dryer and then dissolved in 50 μL extraction solvent. All samples were stored at −30° C. and analyzed within 24 h. All of the samples were filtered through 0.22 μm PTFE membranes into 12×32 mm vials for UPLC-MS/MS analyses using 5-FU-^15N2 as a marker. Pharmacokinetic parameters were calculated using the WinNonlin Software (version 5.2, Pharsight, MO, USA.)
(§3) Analyses were performed on an ACQUITY UPLC I-Class/Xevo TQ-XS IVD System (Waters, Milford, MA, USA) from College of Public Health, National Taiwan University. The reverse phase BEH C18 (100 mm×2.1 mm, 1.7 μm, Waters) and VanGuard BEH C18 (5 mm×2.1 mm, 1.7 μm, Waters) precolumns were used to separate the analytes. All data were acquired by MassLynx V4.2. The mobile phase consisted of a 10 mM aqueous solution of ammonium acetate (A) and acetonitrile (B), set as follows: 0.00 min 98% A→1.00 min 98% A→3.00 min 10% A→4.50 min 10% A→4.60 min 98% A→6.00 min 98% A; at a rate of 0.5 mL/min for 6.00 min with 4 μL per injection. The column oven was maintained at 60° C. Multiple reaction monitoring (MRM) method was applied in quantification. Mass spectrometer parameters were as follows: capillary voltage, 3.0 kV/3.0 kV, respectively, for positive/negative ion mode; ion source temperature, 120° C.; desolvation temperature, 450° C.; cone gas flow (N2), 50 L/h; desolvation gas flow (N2), 700 L/h; multiplier, 650 V; and collision gas pressure (Ar), 3−4×10^−3 mbar.

The subject of the next series is NHDF. The series is described as follows: Cytotoxicity by SRB assay in low GLUT-1 normal cell line NHDF. The series is classed as cell-based. The settings on record: Homo sapiens, low expression GLUT-1 normal cell line. As for the experimental part:
as §1

Series [7] in a line: Body weight changes in the CRC mice model. The series is classed as in vivo, BALB/c mice. As to conditions: free 5-FU 50 mg/kg i.p., after injection. How it is done:
Azoxymethane (AOM)-induced murine CRC model was applied to model human CRC. BALB/c mice (6 weeks of age, male) were intraperitoneally (i.p.) injected once every two weeks with AOM (10 mg/kg body weight) or the PBS vehicle. Seven days after each AOM injection, 2% dextran sulfate sodium (DSS) was given in the drinking water for four days, followed by 3 days of regular water. This cycle was repeated three times. The mice were randomly divided into eight groups (n=5), on day 60 after the first AOM treatment. […] Irinotecan (20 mg/kg), compound 31 (20 mg/kg), and irinotecan+compound 17 (20 mg/kg of irinotecan and 14 mg/kg of compound 17) were injected i.p. q.o.d for two weeks. […] Tumor volumes and body weights were recorded at sacrifice. The tumors were counted under a dissecting microscope, and the area covered by tumors was measured by imaging software (AxioVision LE 4.8.2.0).

Series [8] can be described thus: Organ biodistribution in mice (UPLC-MS/MS). The settings on record: 1 hour post i.p. injection; compound 7 50 mg/kg, free 5-FU 9.5 mg/kg. The series is classed as in vivo, BALB/c mice. How it is done: as §2
as §3, with “Mass spectrometer parameters were as follows: capillary voltage, 3.0 kV/3.0 kV, respectively, for positive/negative ion mode; ion source temperature, 120° C.; desolvation temperature, 450° C.; cone gas flow (N2), 50 L/h; desolvation gas flow (N2), 700 L/h; multiplier, 650 V; and collision gas pressure (Ar), 3−4×10^−3 mbar.” left out

Where [9] appears, read: Homo sapiens, HT-29, 48 h, read-out: IC50 HT-29.

The structures appear in SMILES notation. Read-outs that look alike come from different tables or passages of the source. Bounds are passed on as bounds.

Regarding `CCc1c2c(nc3ccc(OCc4ccc(NC(=O)[C@H](CCCNC(N)=O)NC(=O)[C@@H](NC(=O)CCCCN5C(=O)CC(SCCOCCOCCOc6cc(O)c(C(=O)CCc7ccc(O)cc7)c(O[C@@H]7O[C@H](CO)[C@@H](O)[C@H](O)[C@H]7O)c6)C5=O)C(C)C)cc4)cc13)-c1cc3c(c(=O)n1C2)COC(=O)[C@]3(O)CC` (some centres unmarked) [Compound 37], the “cytotoxicity in HT-29 cell line, in words” value in the series with HT-29 [1] is “less sensitive”. The IC50 was 3.25 ± 0.42 µM in the series with HCT-116 (48 h, prepared in DMSO, read-out: IC50 HCT-116); 3 to 7 µM in the series on HCT-116 (Homo sapiens, HCT-116, 48 h, 48 h, prepared in DMSO, read-out: IC50 HCT-116); greater than 100 µM with HT-29 [2] (setting [9]). In addition, in [3] (SN-38 series, i.v. once every two days for two weeks, 40 mg/kg vs irinotecan 40 mg/kg), the “anti-tumor efficacy (tumor area), in words” value was “ameliorated the tumor area”.

In the case of `O=C(CCc1ccc(O)cc1)c1c(O)cc(OCCOCCOCCS)cc1O[C@@H]1O[C@H](CO)[C@@H](O)C(O)[C@H]1O` (stereo partly drawn) [Compound 16, 1-(2-Hydroxy-4-(2-(2-(2-mercaptoethoxy)ethoxy)ethoxy)-6-(((2S,3R,5S,6R)-3,4,5-trihydroxy-6-(hydroxymethyl)tetrahydro-2H-pyran-2-yl)oxy)phenyl)-3-(4-hydroxyphenyl)propan-1-one], the IC50 with HCT-116 (Homo sapiens, HCT-116, read-out: IC50 HCT-116 5 mM GSH, 48 h, 5 mM GSH) is greater than 100 µM; in the series on HCT-116 (Homo sapiens, HCT-116, read-out: IC50 HCT-116 5 mM GSH, 72 h, prepared in DMA, 5 mM GSH) it was greater than 100 µM; in the series with HCT-116 (Homo sapiens, HCT-116, 48 h, prepared in DMSO, read-out: IC50 HCT-116), greater than 100 µM; in the series with HCT-116 (Homo sapiens, HCT-116, 48 h, w/o GSH, read-out: IC50 HCT-116 w/o GSH) it was greater than 100 µM; in the series with HCT-116 (Homo sapiens, HCT-116, 72 h, prepared in DMA, w/o GSH, read-out: IC50 HCT-116 w/o GSH), greater than 100 µM; in the series with HT-29 [2] (setting [9]), greater than 100 µM. The IC50 with HT-29 [2] (Homo sapiens, HT-29, 48 h, read-out: IC50 HT-29 5 mM GSH) was greater than 100 µM; with HT-29 [2] (Homo sapiens, HT-29, 48 h, read-out: IC50 HT-29 w/o GSH) it was greater than 100 µM; in the series on HT-29 [2] (read-out: IC50 HT-29 5 mM GSH, 48 h, prepared in DMA, 5 mM GSH) it was greater than 100 µM; in the series with HT-29 [2] (read-out: IC50 HT-29 w/o GSH, 48 h, prepared in DMA, w/o GSH) it was greater than 100 µM. Moreover, in series [4], the “cytotoxicity against CRC cell lines, in words” value was “did not exhibit any inhibitory activity”. Besides, the “inhibition of GLUT-1 activity (2-NBDG uptake), in words” value in the series with GLUT-1 was “not able to inhibit GLUT-1”.

For the molecule `O=c1[nH]cc(F)c(=O)[nH]1` [5-FU, 5-fluorouracil, reference compound], the “mean response rate of patients” value in [5] is “approximately 23%”. For the same molecule, the “T. of 5-FU” value in [6] is 10 min. In addition, in series [3] (5-FU series, 50 mg/kg i.p. once every 3 days for 3 weeks), the “reduction of tumor volume” value was determined as 33%. The molecule further came in with an IC50 with NHDF of 70.4 ± 7.2 µM. For the same molecule, the “loss of body weight” value in [7] is reported as “about 10%”. In addition, the “organ distribution of 5-FU, in words” value in [8] is “distributed in stomach, spleen, and kidney”.

Source of the values: patent US12458702B2 (NATIONAL TAIWAN UNIVERSITY, priority 2022, dated 2025).
